The values below are quoted from earlier work in paper PMC7958448, “Bepridil is potent against SARS-CoV-2 in vitro” (Proceedings of the National Academy of Sciences of the …, 2021).

The EC50 is the midpoint of the concentration-response curve.

The subject of this data set is SARS-CoV-2 in Vero E6 cells. As to conditions: cited from earlier work.

For the compound `CCC(CC)COC(=O)[C@H](C)N[P@](=O)(OC[C@H]1O[C@@](C#N)(c2ccc3c(N)ncnn23)[C@H](O)[C@@H]1O)Oc1ccccc1` [remdesivir], the EC50 was 770 nM.
